A value given as a limit tells only on which side of the number the result lay.

Data set [1] is described as follows: Flowability: flow rate through 10 mm orifice of a glass funnel (USP <1174>). Format: physicochemical. To be noted: API before granulation. From the text: It is within the ability of one of skill in the art to determine the flowability of a compound or composition using methods generally accepted in the art. However, suitable methods include but are not limited to, testing the flow rate through an orifice described in USP 31, vol. 1, test <1174>, The United States Pharmacopeia Convention, 2008, in which case, the flowability may be measured as the mass per time flowing through the 10 mm diameter opening of a glass funnel.
(§1) The granules and final compositions were evaluated for bulk and tapped density using the methods described above. Flowability was also accessed by testing the flow rate through an orifice described in USP 31, vol. 1, test <1174>, The United States Pharmacopeia Convention, 2008. The flowability was measured as the mass per time flowing through the 10 mm diameter opening of a glass funnel.

The nature of data set [2]: Bulk / apparent density (m/V0). The format is physicochemical. To be noted: prior to granulation and/or formulation.
Text: It is within the ability of one of skill in the art to determine the bulk density of a compound or composition using methods generally accepted in the art. However, suitable methods include, for example, the European Pharmacopeia edition 6, Test 2.9.15 “apparent volume,” pages 285-286, EDQM, 2007, and USP 31, vol. 1 test <616> page 231-232, The United States Pharmacopeia Convention, 2008. An example of a suitable method is described below:
Apparatus: • settling apparatus capable of producing in 1 minute 250±15 taps from a height of 3±0.2 mm. The support for the graduated cylinder with its holder, has a mass of 450±5 g • a 250 ml graduated cylinder (2 ml intervals) with a mass of 220±40 g
Method: Into a dry cylinder, introduce without compacting, 100.0 g (m g) of the test substance. Secure the cylinder in its holder. Read the unsettled apparent volume (V0) to the nearest milliliter. Carry out 10, 500 and 1250 taps and read the corresponding volumes V10, V500, V1250, to the nearest milliliter. If the difference between V500 and V1250 is greater than 2 ml, carry out another 1250 taps.
Alternatively, if it is not possible to select 100.0 g, select a test sample of any mass but with a volume between 50 ml and 250 ml, measure its apparent volume, V0 as described above, and weigh the sample and specify the mass in the expression of results. Bulk/apparent density may then be determined in g/ml using the following formula: m/V0 where m is the mass in grams and V0 the unsettled apparent volume.
as §1

In the case of `Cc1c(Cl)c(C)[n+]([O-])c(Cl)c1-c1noc(-c2cc(O)c(O)c([N+](=O)[O-])c2)n1` [API, 2,5-dichloro-3-(5-(3,4-dihydroxy-5-nitrophenyl)-1,2,4-oxadiazol-3-yl)-4,6-dimethylpyridine 1-oxide], in data set [1], the “flow of the API alone” value is given as “no flow”. For the same compound, the “bulk density of the API alone” value in data set [2] is less than 0.1 g/mL; in data set [2] (listed as 2,5-dichloro-3-(5-(3,4-dihydroxy-5-nitrophenyl)-1,2,4-oxadiazol-3-yl)-4,6-dimeth) it was “less than 0.1 g/ml”.

For `Cc1nc(Cl)c(-c2noc(-c3cc(O)c(O)c([N+](=O)[O-])c3)n2)c(C)c1Cl` [5-[3-(2,5-dichloro-4,6-dimethylpyridin-3-yl)-[1,2,4]oxadiazol-5-yl]-3-nitrobenzene-1,2-diol], in data set [2], the “bulk density of the API alone” value is recorded as “around 0.2 g/ml”.
